# Reference: ChEMBL document CHEMBL1201862, “PubChem BioAssay data set” (2004)
#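 Grown in 96-well plates, cells were treated for 48 hours with each compound at five concentrations. Insufficient inhibition: endpoint recorded as highest concentration tested. GI50 is the concentration that inhibits growth by half.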 Activity calls are given as the source filed them. Cut-off read from the data, not from the text of the source: active = GI50 up to about 1.1 µM and inactive = higher.
# Experiments:
# Experiment in all cases: growth of human tumour cells (NCI), 48 h
# HOP-92 = system: HOP-92
# Malme-3M = system: Malme-3M
# SW-620 = system: SW-620
# LOX IMVI = system: LOX IMVI
# KM12 = system: KM12
# RPMI-8226 = system: RPMI-8226
# CAKI-1 = system: CAKI-1
# SN12C = system: SN12C
# TK-10 = system: TK-10
# UACC-62 = system: UACC-62
# HCC 2998 = system: HCC 2998
# HOP-18 = system: HOP-18
# NCI-H226 = system: NCI-H226
# NCI-H23 = system: NCI-H23
# OVCAR-4 = system: OVCAR-4
# 786-0 = system: 786-0
# M14 = system: M14
# COLO 205 = system: COLO 205
# OVCAR-3 = system: OVCAR-3
# OVCAR-8 = system: OVCAR-8
# SNB-19 = system: SNB-19
# OVCAR-5 = system: OVCAR-5
# A549 = system: A549
# SK-MEL-28 = system: SK-MEL-28
# SK-MEL-2 = system: SK-MEL-2
# RXF 393 = system: RXF 393
# HCT-116 = system: HCT-116
# SNB-78 = system: SNB-78
# HL-60 = system: HL-60
# NCI-H460 = system: NCI-H460
# SR = system: SR
# K562 = system: K562
# ACHN = system: ACHN
# KM-20L2 = system: KM-20L2
# DLD-1 = system: DLD-1
# HT-29 = system: HT-29
# XF498 = system: XF498
# HCT-15 = system: HCT-15
# CCRF-CEM = system: CCRF-CEM
# A498 = system: A498
# U-251 = system: U-251
# DMS-114 = system: DMS-114
# SF-295 = system: SF-295
# MOLT-4 = system: MOLT-4
# SF-268 = system: SF-268
# UACC-257 = system: UACC-257
# SK-OV-3 = system: SK-OV-3
# M19-MEL = system: M19-MEL
# UO-31 = system: UO-31
# SK-MEL-5 = system: SK-MEL-5
# IGROV-1 = system: IGROV-1
# NCI-H522 = system: NCI-H522
# DMS-273 = system: DMS-273
# EKVX = system: EKVX
# HOP-62 = system: HOP-62
# LXFL 529 = system: LXFL 529
# SNB-75 = system: SNB-75
# SF-539 = system: SF-539
structure (smiles),measurement,setting,value
O=C(/C=C/c1cccc([N+](=O)[O-])c1)c1cccnc1,GI50,HOP-92,74 µM (inactive)
same,GI50,Malme-3M,> 89.9 µM (inactive)
same,GI50,SW-620,19.4 µM (inactive)
same,GI50,LOX IMVI,21.2 µM (inactive)
same,GI50,KM12,19.9 µM (inactive)
same,GI50,RPMI-8226,19.4 µM (inactive)
same,GI50,CAKI-1,> 46.5 µM (inactive)
same,GI50,SN12C,26.5 µM (inactive)
same,GI50,TK-10,> 100 µM (inactive)
same,GI50,UACC-62,30.2 µM (inactive)
same,GI50,HCC 2998,36.5 µM (inactive)
same,GI50,HOP-18,2.06 µM (inactive)
same,GI50,NCI-H226,> 52.6 µM (inactive)
same,GI50,NCI-H23,17.7 µM (inactive)
same,GI50,OVCAR-4,> 91 µM (inactive)
same,GI50,786-0,16.5 µM (inactive)
same,GI50,M14,13.7 µM (inactive)
same,GI50,COLO 205,35.6 µM (inactive)
same,GI50,OVCAR-3,27.5 µM (inactive)
same,GI50,OVCAR-8,34.6 µM (inactive)
same,GI50,SNB-19,> 53.3 µM (inactive)
same,GI50,OVCAR-5,> 100 µM (inactive)
same,GI50,A549,> 60 µM (inactive)
same,GI50,SK-MEL-28,23.6 µM (inactive)
same,GI50,SK-MEL-2,> 100 µM (inactive)
same,GI50,RXF 393,18.1 µM (inactive)
same,GI50,HCT-116,16.7 µM (inactive)
same,GI50,SNB-78,41.2 µM (inactive)
same,GI50,HL-60,20.6 µM (inactive)
same,GI50,NCI-H460,50.7 µM (inactive)
same,GI50,SR,22.7 µM (inactive)
same,GI50,K562,29.4 µM (inactive)
same,GI50,ACHN,71.1 µM (inactive)
same,GI50,KM-20L2,27.7 µM (inactive)
same,GI50,DLD-1,20.3 µM (inactive)
same,GI50,HT-29,20.2 µM (inactive)
same,GI50,XF498,35.8 µM (inactive)
same,GI50,HCT-15,43.5 µM
same,GI50,CCRF-CEM,24.6 µM (inactive)
same,GI50,A498,> 43.6 µM (inactive)
same,GI50,U-251,20.6 µM (inactive)
same,GI50,DMS-114,22.6 µM (inactive)
same,GI50,SF-295,46 µM (inactive)
same,GI50,MOLT-4,26.4 µM (inactive)
same,GI50,SF-268,33.3 µM (inactive)
same,GI50,UACC-257,23.9 µM (inactive)
same,GI50,SK-OV-3,> 100 µM (inactive)
same,GI50,M19-MEL,31.2 µM (inactive)
same,GI50,UO-31,> 45.1 µM (inactive)
same,GI50,SK-MEL-5,14.7 µM (inactive)
same,GI50,IGROV-1,28.7 µM (inactive)
same,GI50,NCI-H522,7.98 µM (inactive)
same,GI50,DMS-273,25.3 µM (inactive)
same,GI50,EKVX,> 100 µM (inactive)
same,GI50,HOP-62,> 100 µM (inactive)
same,GI50,LXFL 529,21 µM (inactive)
same,GI50,SNB-75,> 52.8 µM (inactive)
same,GI50,SF-539,21.1 µM (inactive)
CN(C)CC1CCCC(CN(C)C)C1=NOC(=O)c1ccccc1 (stereo not drawn),GI50,HOP-92,> 100 µM (inactive)
same,GI50,Malme-3M,> 100 µM (inactive)
same,GI50,SW-620,> 100 µM (inactive)
same,GI50,LOX IMVI,> 100 µM (inactive)
same,GI50,KM12,> 100 µM (inactive)
same,GI50,RPMI-8226,> 100 µM (inactive)
same,GI50,SN12C,> 100 µM (inactive)
same,GI50,TK-10,> 100 µM (inactive)
same,GI50,UACC-62,> 100 µM (inactive)
same,GI50,HCC 2998,> 100 µM (inactive)
same,GI50,HOP-18,> 81.8 µM (inactive)
same,GI50,NCI-H226,> 100 µM (inactive)
same,GI50,NCI-H23,> 100 µM (inactive)
same,GI50,786-0,> 100 µM (inactive)
same,GI50,M14,> 100 µM (inactive)
same,GI50,COLO 205,> 100 µM (inactive)
same,GI50,OVCAR-3,> 100 µM (inactive)
same,GI50,OVCAR-8,> 100 µM (inactive)
same,GI50,SNB-19,> 100 µM (inactive)
same,GI50,OVCAR-5,> 100 µM (inactive)
same,GI50,A549,> 100 µM (inactive)
same,GI50,SK-MEL-28,> 100 µM (inactive)
same,GI50,SK-MEL-2,> 100 µM (inactive)
same,GI50,HCT-116,> 100 µM (inactive)
same,GI50,SNB-78,> 100 µM (inactive)
same,GI50,HL-60,> 100 µM (inactive)
same,GI50,NCI-H460,> 100 µM (inactive)
same,GI50,SR,> 100 µM (inactive)
same,GI50,K562,> 100 µM (inactive)
same,GI50,ACHN,> 100 µM (inactive)
same,GI50,KM-20L2,> 100 µM (inactive)
same,GI50,DLD-1,> 100 µM (inactive)
same,GI50,HT-29,> 100 µM (inactive)
same,GI50,XF498,> 100 µM (inactive)
same,GI50,HCT-15,> 100 µM
same,GI50,CCRF-CEM,> 100 µM (inactive)
same,GI50,A498,> 100 µM (inactive)
same,GI50,U-251,> 100 µM (inactive)
same,GI50,DMS-114,> 100 µM (inactive)
same,GI50,SF-295,> 100 µM (inactive)
same,GI50,MOLT-4,> 100 µM (inactive)
same,GI50,SF-268,> 100 µM (inactive)
same,GI50,UACC-257,> 100 µM (inactive)
same,GI50,SK-OV-3,> 100 µM (inactive)
same,GI50,M19-MEL,> 100 µM (inactive)
same,GI50,UO-31,> 100 µM (inactive)
same,GI50,SK-MEL-5,> 100 µM (inactive)
same,GI50,IGROV-1,> 100 µM (inactive)
same,GI50,NCI-H522,> 100 µM (inactive)
same,GI50,DMS-273,> 100 µM (inactive)
same,GI50,EKVX,> 100 µM (inactive)
same,GI50,HOP-62,> 100 µM (inactive)
same,GI50,LXFL 529,> 100 µM (inactive)
same,GI50,SNB-75,> 56.5 µM (inactive)
same,GI50,SF-539,> 100 µM (inactive)
